The record followed here is PubChem BioAssay AID787 (PCMD, 2007).

Calls of active or inactive are those of the source. How the calls were made is not given here.

This test addresses Complement C1s subcomponent (Homo sapiens) (UniProt P09871). Description: concentration-response of complement C1s inhibitors – biochemical, dose response (AID 787). To be noted: purified C1s enzyme, fluorogenic substrate, FU read-out.

Chain of Complement C1s subcomponent (Homo sapiens) (P09871 16-437 limits assumed): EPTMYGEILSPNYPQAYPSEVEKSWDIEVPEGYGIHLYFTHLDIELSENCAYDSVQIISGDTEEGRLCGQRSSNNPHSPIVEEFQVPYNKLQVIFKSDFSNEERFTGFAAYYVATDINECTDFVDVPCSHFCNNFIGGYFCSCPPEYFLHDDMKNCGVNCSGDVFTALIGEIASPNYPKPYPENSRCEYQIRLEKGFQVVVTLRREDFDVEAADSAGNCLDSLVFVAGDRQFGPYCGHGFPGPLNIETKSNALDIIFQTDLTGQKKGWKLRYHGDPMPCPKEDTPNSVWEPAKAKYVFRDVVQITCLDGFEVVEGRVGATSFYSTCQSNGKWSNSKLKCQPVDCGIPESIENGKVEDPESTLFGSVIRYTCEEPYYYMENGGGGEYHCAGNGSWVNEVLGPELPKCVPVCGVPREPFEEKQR
Chain of Complement C1s subcomponent (Homo sapiens) (P09871 438-688 limits assumed): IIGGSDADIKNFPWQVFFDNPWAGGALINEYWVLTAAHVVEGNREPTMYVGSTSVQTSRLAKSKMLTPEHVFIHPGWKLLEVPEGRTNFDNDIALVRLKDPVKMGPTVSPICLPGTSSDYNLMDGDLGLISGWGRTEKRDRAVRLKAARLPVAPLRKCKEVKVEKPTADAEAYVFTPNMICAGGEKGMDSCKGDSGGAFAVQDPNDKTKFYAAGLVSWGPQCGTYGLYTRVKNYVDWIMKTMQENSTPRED

Regarding `CCOc1ccc(N2C(=O)CC(N3CCN(c4ccccc4F)CC3)C2=O)cc1` (centres undefined), the IC50 is > 50 µM (inactive).
For `COc1ccc(NC(=O)CSC2=C(C#N)C(c3ccco3)C3=C(CCCC3=O)N2)c(OC)c1` (centres undefined) the value was > 50 µM (inactive).
For `O=C(Oc1ccc(Cl)cc1N1C(=O)CCC1=O)c1ccco1`, the IC50 was > 50 µM (inactive).
On to `Cc1cccc(COc2ccc(/C(O)=C3\C(=O)C(=O)N(CCN(C)C)C3c3ccncc3)cc2)c1` (centres undefined), for which the IC50 was > 50 µM (inactive).
`O=C1CCCC2=C1C1(CCCCC1)N=C(Nc1nc3ccccc3o1)N2`: the IC50 is > 50 µM (inactive).
In the case of `COC(=O)Cc1[nH]nc2c1C1(C(=O)N(Cc3ccccc3)c3ccccc31)C(C#N)=C(N)O2` (centres undefined) it was > 50 µM (inactive).
`CCOC(=O)N1CC=C2C(C#N)=C(N)C(C#N)(C#N)[C@H](c3ccccc3OCC)[C@H]2C1`: the IC50 was > 50 µM (inactive).
As to `COc1cccc(C2=CC(c3cccc(OC)c3OC)n3nnnc3N2)c1` (centres undefined), the IC50 is > 50 µM (inactive).
For `O=C1CCCC(O)=C1C=NCCc1ccccc1` the value was > 50 µM (inactive).

As a reminder, the IC50 is the midpoint of a concentration-inhibition curve.
